From patent US12029814B1, “Formulation of ear drops and methods for delivery thereof for treating upper respiratory infections” (priority 2023, dated 2024)

Tests used:
Assay type in all cases: cell-based
SARS-COV-2 BA.1 = tested on: SARS-COV-2 BA.1
SARS-COV-2 BA.2 = tested on: SARS-COV-2 BA.2
SARS-COV-2 BA.5 = tested on: SARS-COV-2 BA.5
SARS-COV-2 XBB = tested on: SARS-COV-2 XBB
SARS-COV-2 XBB1.5 = tested on: SARS-COV-2 XBB1.5
[1] = tested on: original WA1 viral strain of SARS-COV-2; experiment: in vitro infectivity of epithelial cells expressing ACE-2 and TMPRSS-2, virus-NP protein in culture media; conditions: MOI 0.01

## hemin
SARS-COV-2 BA.1
  cellular protection against SARS-COV-2 BA.1 infection: protected cells
  inhibition of SARS-COV-2 BA.1 (dose response): dose-dependent inhibition
SARS-COV-2 BA.2
  replication of SARS-COV-2 BA.2: significantly suppressed replication
SARS-COV-2 BA.5
  replication of SARS-COV-2 BA.5: significantly suppressed replication
SARS-COV-2 XBB
  replication of SARS-COV-2 XBB: significantly suppressed replication
SARS-COV-2 XBB1.5
  replication of SARS-COV-2 XBB1.5: significantly suppressed replication
[1]
  SARS-COV-2 infection, original WA1 viral strain: markedly suppressed
